Assay results from ChEMBL document CHEMBL5303573, “Mapping human microbiome drug metabolism by gut bacteria and their genes” (Nature, 2019).

Experiments:
[1] = The drug is tested on Collinsella aerofaciens strain: ATCC25986 for biotransformation. The drug concentrations were measured before and after a 12-h incubation by liquid-chromatography-coupled mass spectrometry (LC–MS); conditions: 2 µM
[2] = The drug is tested on Bacteroides cellulosilyticus strain: DSM14838 for biotransformation. The drug concentrations were measured before and after a 12-h incubation by liquid-chromatography-coupled mass spectrometry (LC–MS); conditions: 2 µM
[3] = The drug is tested on Bacteroides fragilis strain: HMW610 for biotransformation. The drug concentrations were measured before and after a 12-h incubation by liquid-chromatography-coupled mass spectrometry (LC–MS); conditions: 2 µM
[4] = The drug is tested on Bacteroides fragilis strain: HMW615 for biotransformation. The drug concentrations were measured before and after a 12-h incubation by liquid-chromatography-coupled mass spectrometry (LC–MS); conditions: 2 µM
[5] = The drug is tested on Bacteroides uniformis strain: ATCC8492 for biotransformation. The drug concentrations were measured before and after a 12-h incubation by liquid-chromatography-coupled mass spectrometry (LC–MS); conditions: 2 µM
[6] = The drug is tested on Bacteroides vulgatus strain: ATCC8482 for biotransformation. The drug concentrations were measured before and after a 12-h incubation by liquid-chromatography-coupled mass spectrometry (LC–MS); conditions: phocaeicola vulgatus, 2 µM
[7] = The drug is tested on Clostridium scindens strain: ATCC35704 for biotransformation. The drug concentrations were measured before and after a 12-h incubation by liquid-chromatography-coupled mass spectrometry (LC–MS); conditions: 2 µM
[8] = The drug is tested on Coprococcus comes strain: ATCC27758 for biotransformation. The drug concentrations were measured before and after a 12-h incubation by liquid-chromatography-coupled mass spectrometry (LC–MS); type: ADME; set-up: dose 2 uM, timepoint 0 vs 12 hours; conditions: 2 µM
[9] = The drug is tested on Dorea formicigenerans strain: ATCC27755 for biotransformation. The drug concentrations were measured before and after a 12-h incubation by liquid-chromatography-coupled mass spectrometry (LC–MS); conditions: 2 µM
[10] = The drug is tested on Eubacterium ventriosum strain: ATCC27560 for biotransformation. The drug concentrations were measured before and after a 12-h incubation by liquid-chromatography-coupled mass spectrometry (LC–MS); type: ADME; set-up: dose 2 uM, timepoint 0 vs 12 hours; conditions: 2 µM
[11] = The drug is tested on Ruminococcus gnavus strain: ATCC29149 for biotransformation. The drug concentrations were measured before and after a 12-h incubation by liquid-chromatography-coupled mass spectrometry (LC–MS); conditions: mediterraneibacter gnavus, 2 µM
[12] = bifidobacterium adolescentis, 12 h, 2 µM
Description: The drug is tested on Bifidobacterium adolescentis strain: ATCC 15703 for biotransformation. The drug concentrations were measured before and after a 12-h incubation by liquid-chromatography-coupled mass spectrometry (LC–MS)

[13] = bacteroides eggerthii, 12 h, 2 µM
Description: The drug is tested on Bacteroides eggerthii strain: DSM20697 for biotransformation. The drug concentrations were measured before and after a 12-h incubation by liquid-chromatography-coupled mass spectrometry (LC–MS)

[14] = bacteroides fragilis, 12 h, 2 µM
Description: The drug is tested on Bacteroides fragilis strain: NCTC 9343 for biotransformation. The drug concentrations were measured before and after a 12-h incubation by liquid-chromatography-coupled mass spectrometry (LC–MS)

[15] = parabacteroides johnsonii, 12 h, 2 µM
Description: The drug is tested on Parabacteroides johnsonii strain: DSM18315 for biotransformation. The drug concentrations were measured before and after a 12-h incubation by liquid-chromatography-coupled mass spectrometry (LC–MS)

[16] = enterocloster bolteae, 12 h, 2 µM
Description: The drug is tested on Clostridium bolteae strain: ATCCBAA-613 for biotransformation. The drug concentrations were measured before and after a 12-h incubation by liquid-chromatography-coupled mass spectrometry (LC–MS)

[17] = The drug is tested on Odoribacter splanchnicus strain: fecal isolate for biotransformation. The drug concentrations were measured before and after a 12-h incubation by liquid-chromatography-coupled mass spectrometry (LC–MS); conditions: 2 µM
[18] = The drug is tested on Anaerococcus hydrogenalis strain: DSM7454 for biotransformation. The drug concentrations were measured before and after a 12-h incubation by liquid-chromatography-coupled mass spectrometry (LC–MS); conditions: 2 µM
[19] = The drug is tested on Clostridium ramosum strain: DSM1402 for biotransformation. The drug concentrations were measured before and after a 12-h incubation by liquid-chromatography-coupled mass spectrometry (LC–MS); conditions: thomasclavelia ramosa, 2 µM
[20] = The drug is tested on Bifidobacterium ruminantium strain: fecal isolate for biotransformation. The drug concentrations were measured before and after a 12-h incubation by liquid-chromatography-coupled mass spectrometry (LC–MS); conditions: 2 µM

Structure (SMILES) | Bacterial Biotransformation [1] | Bacterial Biotransformation [2] | Bacterial Biotransformation [3] | Bacterial Biotransformation [4] | Bacterial Biotransformation [5] | Bacterial Biotransformation [6] | Bacterial Biotransformation [7] | Bacterial Biotransformation [8] | Bacterial Biotransformation [9] | Bacterial Biotransformation [10] | Bacterial Biotransformation [11] | Bacterial Biotransformation [12] | Bacterial Biotransformation [13] | Bacterial Biotransformation [14] | Bacterial Biotransformation [15] | Bacterial Biotransformation [16] | Bacterial Biotransformation [17] | Bacterial Biotransformation [18] | Bacterial Biotransformation [19] | Bacterial Biotransformation [20]
OC(c1cc(C(F)(F)F)nc2c(C(F)(F)F)cccc12)C1CCCCN1 (stereo not given) [MEFLOQUINE] | Compound NOT metabolized | Compound NOT metabolized | Compound NOT metabolized | Compound NOT metabolized | Compound NOT metabolized | Compound NOT metabolized | Compound NOT metabolized | Compound NOT metabolized | Compound NOT metabolized | Compound NOT metabolized | Compound NOT metabolized | Compound NOT metabolized | Compound NOT metabolized | Compound NOT metabolized | Compound NOT metabolized | Compound NOT metabolized | – | – | – | –
CN(C)C(=O)C(CCN1CCC(O)(c2ccc(Cl)cc2)CC1)(c1ccccc1)c1ccccc1 [LOPERAMIDE] | Compound NOT metabolized | Compound NOT metabolized | Compound metabolized | Compound NOT metabolized | Compound metabolized | Compound metabolized | Compound NOT metabolized | – | Compound NOT metabolized | Compound NOT metabolized | Compound NOT metabolized | Compound NOT metabolized | Compound metabolized | Compound metabolized | – | Compound NOT metabolized | Compound metabolized | Compound NOT metabolized | Compound NOT metabolized | –
CCC(=O)NCC[C@@H]1CCc2ccc3c(c21)CCO3 [RAMELTEON] | Compound NOT metabolized | Compound NOT metabolized | Compound metabolized | – | Compound metabolized | Compound metabolized | Compound NOT metabolized | Compound NOT metabolized | Compound NOT metabolized | Compound NOT metabolized | Compound NOT metabolized | Compound NOT metabolized | Compound metabolized | Compound metabolized | Compound NOT metabolized | Compound NOT metabolized | Compound metabolized | Compound NOT metabolized | Compound NOT metabolized | Compound NOT metabolized
O=C(O[C@H]1C[C@H]2CC[C@@H](C1)[N+]21CCCC1)C(O)(c1ccccc1)c1ccccc1.[Cl-] [TROSPIUM CHLORIDE] | Compound NOT metabolized | Compound NOT metabolized | – | – | Compound NOT metabolized | – | Compound NOT metabolized | Compound NOT metabolized | Compound NOT metabolized | Compound NOT metabolized | Compound NOT metabolized | Compound NOT metabolized | Compound NOT metabolized | Compound NOT metabolized | Compound NOT metabolized | Compound NOT metabolized | – | Compound NOT metabolized | Compound NOT metabolized | Compound NOT metabolized
CC(=O)O[C@H]1C(=O)[C@@]2(C)[C@H]([C@H](OC(=O)c3ccccc3)[C@]3(O)C[C@H](OC(=O)[C@H](O)[C@@H](NC(=O)c4ccccc4)c4ccccc4)C(C)=C1C3(C)C)[C@]1(OC(C)=O)CO[C@@H]1C[C@@H]2O [PACLITAXEL] | Compound NOT metabolized | Compound NOT metabolized | – | Compound NOT metabolized | Compound metabolized | – | Compound NOT metabolized | Compound NOT metabolized | Compound NOT metabolized | – | Compound NOT metabolized | Compound NOT metabolized | Compound NOT metabolized | – | Compound NOT metabolized | Compound NOT metabolized | Compound metabolized | Compound NOT metabolized | Compound NOT metabolized | Compound NOT metabolized

Now from value to compound:

Bacterial Biotransformation [1] | Bacterial Biotransformation [2] | Bacterial Biotransformation [3] | Bacterial Biotransformation [4] | Bacterial Biotransformation [5] | Bacterial Biotransformation [6] | Bacterial Biotransformation [7] | Bacterial Biotransformation [8] | Bacterial Biotransformation [9] | Bacterial Biotransformation [10] | Bacterial Biotransformation [11] | Bacterial Biotransformation [12] | Bacterial Biotransformation [13] | Bacterial Biotransformation [14] | Bacterial Biotransformation [15] | Bacterial Biotransformation [16] | Bacterial Biotransformation [17] | Bacterial Biotransformation [18] | Bacterial Biotransformation [19] | Bacterial Biotransformation [20] | Structure (SMILES)
Compound NOT metabolized | Compound NOT metabolized | Compound NOT metabolized | Compound NOT metabolized | Compound NOT metabolized | Compound NOT metabolized | Compound NOT metabolized | Compound NOT metabolized | Compound NOT metabolized | Compound NOT metabolized | Compound NOT metabolized | Compound NOT metabolized | Compound NOT metabolized | – | Compound NOT metabolized | Compound NOT metabolized | Compound NOT metabolized | Compound NOT metabolized | Compound NOT metabolized | – | CC(C)(C)NCC(O)COc1cccc2c1CC(O)C(O)C2 (stereo not given) [NADOLOL]
Compound NOT metabolized | Compound NOT metabolized | Compound NOT metabolized | Compound NOT metabolized | Compound NOT metabolized | Compound NOT metabolized | Compound NOT metabolized | Compound NOT metabolized | Compound NOT metabolized | Compound NOT metabolized | Compound NOT metabolized | Compound NOT metabolized | Compound NOT metabolized | Compound NOT metabolized | Compound NOT metabolized | Compound NOT metabolized | Compound NOT metabolized | Compound NOT metabolized | – | Compound NOT metabolized | CCc1nc(N)nc(N)c1-c1ccc(Cl)cc1 [PYRIMETHAMINE]
Compound NOT metabolized | Compound NOT metabolized | Compound metabolized | Compound NOT metabolized | Compound NOT metabolized | – | Compound NOT metabolized | Compound NOT metabolized | Compound NOT metabolized | – | Compound NOT metabolized | Compound NOT metabolized | Compound NOT metabolized | – | Compound NOT metabolized | Compound NOT metabolized | Compound NOT metabolized | Compound metabolized | Compound NOT metabolized | – | COc1ccc(/C=C/C(=O)Nc2ccccc2C(=O)O)cc1OC
Compound NOT metabolized | Compound NOT metabolized | Compound metabolized | Compound metabolized | Compound metabolized | – | Compound NOT metabolized | Compound NOT metabolized | Compound NOT metabolized | – | Compound NOT metabolized | Compound NOT metabolized | Compound NOT metabolized | Compound NOT metabolized | Compound NOT metabolized | Compound NOT metabolized | Compound NOT metabolized | Compound NOT metabolized | Compound NOT metabolized | Compound NOT metabolized | O=C(NC(Cc1cc(=O)[nH]c2ccccc12)C(=O)O)c1ccc(Cl)cc1 (stereo not given) [REBAMIPIDE]
